Measurements from patent EP0489933A1, “BILE ALCOHOL AND DRUG CONTAINING THE SAME AS ACTIVE INGREDIENT” (TSUMURA CO., LTD., priority 1990, dated 1992).

Columns and labels:
male mice of ddY line [1] = assay: Survival time under hypoxia (aeration with 96% nitrogen and 4% oxygen); type: in vivo; conditions: 50 mg/kg, i.p., 60 minutes before aeration with 96% nitrogen and 4% oxygen; time to respiratory arrest
Method: In this experiment, 5 to 6-week-old male mice of ddY line (10 individuals per one group) were used after fasting treatment for 24 hours.
Each compound obtained in the present invention was administered intraperitoneally. After 60 minutes of the administration, each mouse was transferred separately into a transparent vessel (capacity, 1,000 ml) equipped with an air exit, and the vessel was aerated with a mixed gas consisting of 96% nitrogen and 4% oxygen at an aeration rate of 5 ℓ/min.
All tested mice died within 180 seconds after the commencement of the gas mixture aeration. Terminal respiration was observed several times prior to the respiratory arrest. Survival time of the control group was roughly in the range of from 96 to 111 seconds.

male mice of ddY line [2] = assay: Blood oxygen and carbon dioxide partial pressure; type: in vivo; conditions: 20 mg/kg, i.p.; blood from abdominal aorta 60 minutes after administration
Method: In this experiment, 4-week-old male mice of ddY line (10 individuals per one group) were used after fasting treatment for 24 hours.
After 60 minutes of the administration of each compound of the present invention, each mouse was subjected to ventrotomy under anesthesia with Nembutal® (Dainabot Co., Ltd.; 50 mg/kg, i.p.) to collect blood from abdominal aorta, and the collected blood sample was immediately checked for its oxygen partial pressure (PO₂) and carbon dioxide partial pressure (PCO₂) using a blood-aerotonometer (Model 170, Ciba-Corning).

red blood cells = assay: Inhibition of thermal hemolysis of red blood cells; type: cell-based, donryu rats; conditions: Rattus norvegicus, Erythrocyte, 20 min, 53°C for 20 minutes, read-out: Hemolysis Inhibition Ratio (%) against Control; for inhibition at 10 µM: 0.01 mM; for inhibition at 50 µM: 0.05 mM; for inhibition at 100 µM: 0.1 mM; for inhibition at 200 µM: 0.2 mM; for inhibition at 500 µM: 0.5 mM
Method: Blood was collected from donryu rats of 150 to 200 g in body weight and centrifuged at 1,500 rpm for 5 minutes to obtain red blood cells. The red blood cells thus collected were diluted with 0.15 M phosphate buffer (pH 7.4) to prepare a 5% red blood cell suspension. A 3.8 ml portion of the thus prepared suspension was mixed with 0.2 ml solution of each compound of the present invention which has been adjusted to each level of the concentrations as shown in the following table, and the resulting mixture was shaken thoroughly and incubated at 53°C for 20 minutes. Thereafter, the thus incubated mixture was cooled rapidly with tap water and centrifuged at 3,000 rpm for 15 minutes, and absorbance at 540 nm of the resulting supernatant fluid was measured using a spectrophotometer (Hitachi: Type 200-20). Inhibition rate (%) of red blood cell hemolysis at each concentration of the compound was calculated based on the absorbance, with the results shown in Table 8.

[3] = tested on: rats of diabetes mellitus; assay: Blood sugar level in streptozotocin-induced diabetes mellitus; type: in vivo, male rats of Wistar line; conditions: 50 mg/kg, i.o.; administered for 1 week beginning 1 week after streptozotocin (40 mg/kg); serum
Method: In this experiment, 8-week-old male rats of Wistar line (5 individuals per one group) were used after rearing them for 1 week with normal feed. Streptozotocin (40 mg/kg) was administered by tail intravenous injection to obtain rats of diabetes mellitus. Beginning after 1 week of the streptozotocin administration, oral administration of each test drug has been carried out for 1 week, followed by 24 hours of fasting. Thereafter, blood sample was collected from lower abdominal vena cava under anesthesia with Nembutal® (1 ml/kg, i.p.). Serum samples were prepared from the thus collected blood samples and checked for their blood sugar levels, with the results shown in Table 9.

male rats of SHR line = assay: Blood pressure in SHR rats; type: in vivo; conditions: 10 mg/kg, p.o., 2 weeks
Method: In this experiment, 12-week-old male rats of SHR line (5 to 6 individuals per one group) were used after rearing them for 1 week with normal feed. Oral administration of each test drug has been carried out for 2 weeks and then blood pressure (mmHg) was measured using a small animal hemomanometer (UR-1000).

erythrocytes = assay: Erythrocyte deformability (filtration through 5 µm filter) after oral administration; type: in vivo, male rats of Wistar line; conditions: 30 mg/kg, p.o.; blood collected 90 minutes after administration; number of filtered erythrocytes
Method: In this experiment, 9-week-old male rats of Wistar line (5 to 6 individuals per one group) were used after rearing them for 1 week with normal feed. After 24 hours of fasting, each test drug was administered orally and, 90 minutes thereafter, blood sample was collected from lower abdominal vena cava of each rat under anesthesia with Nembutal® (1 ml/kg, i.p.). Blood samples obtained in this way were checked for their blood clotting time and erythrocyte deformability.
Measuring procedures are as follows.
Erythrocyte deformability ... The collected blood is extruded from a syringe with a constant flow of He in a holder equipped with a filter (5 µm). Weight of blood and the number of erythrocytes filtered during a fixed time are measured and the deformability is expressed based on the number of filtered erythrocytes. The results of these measurements are shown respectively in Tables 11 and 12.

[4] = tested on: platelet rich plasma (PRP); assay: Platelet aggregation in platelet rich plasma after oral administration; type: in vivo, male rat; conditions: 30 mg/kg, p.o., blood 90 minutes after administration
Method: Each drug to be tested was orally administered to each male rat which has been subjected to fasting treatment for 18 to 24 hours. After 90 minutes of the administration, median incision ventrotomy was carried out under ether anesthesia to collect 9 volumes of blood using a syringe filled with 1 volume of 3.8% sodium citrate solution (3.8% sodium citrate solution:blood = 1:9). After thorough mixing, the thus prepared mixture was centrifuged at 800 rpm for 10 minutes at room temperature to collect the resulting supernatant fluid as platelet rich plasma (PRP). The residual portion was centrifuged at 3,000 rpm for 15 minutes at room temperature to collect the resulting supernatant fluid as platelet poor plasma (PPP). The PRP was diluted with the PPP to adjust the number of platelets to 3×10⁵ ± 2×10⁴ cells/µl. A 450 µl portion of the thus diluted PRP was incubated at 37°C for 3 minutes and then mixed with 50 µl of 1×10⁻⁵ M of ADP or 1×10⁻⁵ g/ml of collagen. Thereafter, platelet aggregation test of the mixture was carried out using an aggregometer by measuring transmittance at 940 nm.

SMILES | Survival Time ±S.E. (male mice of ddY line [1]) | Carbon Dioxide Partial Pressure (male mice of ddY line [2]) | Oxygen Partial Pressure (male mice of ddY line [2]) | inhibition at 10 µM (red blood cells) | inhibition at 50 µM (red blood cells) | inhibition at 100 µM (red blood cells) | inhibition at 200 µM (red blood cells) | inhibition at 500 µM (red blood cells) | Blood Sugar Level ± S.E. [3] | Blood Pressure ±S.E. Average (male rats of SHR line) | Blood Pressure ±S.E. Maximum (male rats of SHR line) | Erythrocyte Deformation: Erythrocyte counts ±S.E. (erythrocytes) | Platelet Aggregation Ratio ±S.E. ([4]; ADP (1×10⁻⁵ M)) | Platelet Aggregation Ratio ±S.E. ([4]; Collagen (1×10⁻⁵ g/ml))
C[C@H](CCCC(C)(O)CO)[C@H]1CC[C@H]2[C@@H]3[C@H](O)C[C@@H]4C[C@H](O)CC[C@]4(C)[C@H]3C[C@H](O)[C@]12C (stereo partly drawn) [Illustrative Example 4, 5β-cholestane-3α,7α,12α,25,26-pentol] | 118.0 ± 5.11 s | 40.5 mmHg | 91.9 mmHg | 27% | 25% | 41% | 42% | 49% | 133 ± 5.4 mg/dL | 144 ± 4.4 mmHg | 181 ± 2.5 mmHg | 3.93 ± 0.38 × 10⁷ | 42.5 ± 1.65% | 48.7 ± 2.53%
CC(C)C(O)CC[C@@H](C)[C@H]1CC[C@H]2[C@@H]3[C@H](O)C[C@@H]4C[C@H](O)CC[C@]4(C)[C@H]3C[C@H](O)[C@]12C (stereo partly drawn) [Illustrative Example 5, 3α,7α,12α,24-tetrahydroxy-5β-cholestane] | 110.5 ± 6.71 s | 41.2 mmHg | 88.1 mmHg | 25% | 21% | 33% | 51% | 58% | 170 ± 7.2 mg/dL | 151 ± 4.6 mmHg | 185 ± 7.7 mmHg | 3.51 ± 0.65 × 10⁷ | 44.8 ± 3.62% | 49.9 ± 4.85%
C[C@H](CCCO)[C@H]1CC[C@H]2[C@@H]3[C@H](O)C[C@@H]4C[C@H](O)CC[C@]4(C)[C@H]3C[C@H](O)[C@]12C [Illustrative Example 6, 3α,7α,12α,24-tetrahydroxy-5β-cholan] | 115.4 ± 2.24 s | 40.1 mmHg | 89.6 mmHg | 24% | 22% | 38% | 51% | 59% | 159 ± 5.7 mg/dL | 148 ± 8.4 mmHg | 187 ± 6.3 mmHg | 3.71 ± 0.48 × 10⁷ | 43.5 ± 3.26% | 47.7 ± 2.58%
